Experimental data from publication PMC11304990, “Identification of mitochondrial ATP synthase as the cellular target of Ru-polypyridyl-β-carboline complexes by affinity-based protein profiling” (National Science Review, 2024).

System: Ru5-treated cells
Assay: Effect of cell death inhibitors on antiproliferative activity
Type: cell-based
Conditions: 24 h
Protocol: Figure 4. Ru5 induces mitophagy and ferroptosis and inhibits EMT in vitro. (A) TEM images of A549 cells treated with vehicle (1% DMSO) or Ru5 (10 μM, 12 h). Red rectangles represent the region enlarged. Scale bar: 5 μm and 500 nm (enlarged). (B) The morphological examination of mitochondria in A549 cells treated with Ru5 (10 μM) for the indicated time intervals. MTG: λex = 514 nm; λem = 540 ± 20 nm. LTDR: λex = 633 nm; λem = 700 ± 20 nm. Scale bar: 20 μm. (C) Western blotting analysis showing the impact of Ru5 (24 h) on the expression of proteins related to mitochondrial dysfunction and ferroptosis. (D and E) The impact of different inhibitors on antiproliferative activity of Ru5 (24 h). (F) RT-qPCR analysis of EMT-related genes in A549 cells after Ru5 (10 μM, 12 h) treatment. (G) The impact of Ru5 (5 μM) on the migration of A549 cells was measured by a wound healing assay. Scale bar: 100 μm. (H) Quantitative analysis of the impact of Ru5 on wound healing. (I) Selective images of the impact of Ru5 (5 μM, 48 h) on the migration of A549 cells detected by transwell assay. Scale bar: 100 μm. Data are presented as means ± SD from three independent experiments. *P ≤ 0.05, **P ≤ 0.01, ***P ≤ 0.001, by Student's t-test.
We then used different specific inhibitors to further confirm the modes of cell death induced by Ru5. These inhibitors act on autophagy (3-methyladenine, 3-MA, Fig. 4D), ferroptosis (liproxstatin-1, Lip-1, Fig. 4E), necroptosis (necrostatin-1, Nec-1, Fig. S47A) and apoptosis (Z-VAD-FMK, Fig. S47B). The effect of 3-MA on the antiproliferative activity of Ru5 is concentration-dependent, with lower and higher concentrations enhancing and inhibiting the antiproliferative activity of Ru5, respectively. Thus, Ru5 induces cytoprotective autophagy at lower concentrations, while autophagic cell death is induced at higher concentrations. As expected, Lip-1 can relieve the antiproliferative activity of Ru5. However, Nec-1 and Z-VAD-FMK show no effect on the cell viability of Ru5-treated cells.

SMILES: F[P-](F)(F)(F)(F)F.F[P-](F)(F)(F)(F)F.[Ru+2].c1ccc2c(c1)[nH]c1c(-c3ncc[nH]3)nccc12.c1cnc2c(c1)ccc1cccnc12.c1cnc2c(c1)ccc1cccnc12 [Ru5]
- Effect of 3-MA (autophagy inhibitor) on antiproliferative activity: concentration-dependent
- Effect of Lip-1 (ferroptosis inhibitor) on antiproliferative activity: relieve
- Effect of Nec-1 (necroptosis inhibitor) on cell viability: no effect
- Effect of Z-VAD-FMK (apoptosis inhibitor) on cell viability: no effect
